For data set [1] the following is noted: cited from earlier work.
The nature of data set [2]: Crystal suspensions of microcrystalline paclitaxel in different solvent mixtures. The format is physicochemical. Details: key: +++: good; +/−: average; −−−: poor. The note with it: with trioctanoylglycerol. The procedure:
To prepare the solutions, 770 mg of trioctanoylglycerol was dissolved in the polar solvent. Then the nonpolar solvent was added. It was then homogenized and filtered.
To test whether crystal suspension could be prepared, 10 mL of each of the solutions was carefully added to 200 mg of paclitaxelin the form of microcrystals at room temperature. After combining, it was tested whether stable crystal suspensions were obtained.

Data set [3] in a line: Preparation and stability of crystal suspensions of microcrystalline paclitaxel with solutions of different tri-O-acylglycerols. The conditions noted are these: for microcrystals intact in SEM images: SEM 200× and 1000×; for microcrystals of paclitaxel dissolve directly in the solution: directly after combining, room temperature.
Source text: In the first step, solutions of tri-O-acylglycerols were first prepared in a solvent mixture. Subsequently, the solutions were combined with microcrystals of paclitaxel to investigate which tri-O-acylglycerols could be used to obtain stable crystal suspensions. […] For the preparation of the solutions, an ethyl acetate/heptane solvent mixture was used here as an example.
To prepare the solutions, the respective tri-O-acylglycerol was first dissolved in a polar organic solvent and then a non-polar solvent was added.
To prepare the solutions, 770 mg of the respective tri-O-acylglycerol were dissolved in 14 g ethyl acetate (15.6 mL). Then, 57.4 g of n-heptane (84.4 mL) was added.
Subsequently, homogenization and filtration were performed. The total volume of the solvent mixture is 100 mL.
To a precisely weighed amount of dry microcrystals of the previously prepared paclitaxel, a defined amount of the solutions containing tri-O-acylglycerol and optionally antioxidant is carefully added.
To check whether crystal suspension can be prepared, to each 200 mg of paclitaxel in the form of microcrystals were carefully added 10 mL of one of the solutions 1a) to 1j) at room temperature. Six mixtures of 10 mL of solution for each solution were prepared. After combining, it was tested whether the microcrystals of paclitaxel dissolved directly in the solutions.
To evaluate the crystal size, particle size distribution (i.e., crystal size distribution), and shape of the crystals, a sample was taken with a Pasteur pipette in each case and a drop was placed on the slide of the SEM sample plate. SEM images were taken at 200× and 1000× magnification for evaluation.
To evaluate the crystal size, particle size distribution (i.e., crystal size distribution), and shape of the crystals, one sample was taken from each using a Pasteur pipette and one drop was placed on the foil of the SEM sample plate. An additional sample was taken from the sediment and one drop was placed on the slide of the SEM sample plate. SEM images were taken at 200× and 1000× magnification for evaluation. SEM images were taken at 200 and 1000× magnification for evaluation.
To prepare the solutions, 770 mg of the respective tri-O-acylglycerol were dissolved in 14 g ethyl acetate (15.6 mL). Then, 57.4 g of n-heptane (84.4 mL) was added. Subsequently, homogenization and filtration were performed. The total volume of the solvent mixture is 100 mL.
Three mixtures of 10 mL of solution for each solution were prepared. After combining, it was tested whether the microcrystals dissolved directly in these solutions.

Where two headings read alike, the source gives them in different places.

Regarding `C1COCCO1` [1,4-Dioxane], the logKOW is −0.4 in data set [1] (Table 6, rounded values) and −0.42 in data set [1] (Table 7). Further, the “log KOW” value in data set [1] is “about −0.4”.

As for `CCCCc1ccccc1` [1-Phenylbutane], the logKOW in data set [1] (Table 4) is listed as 3.4.

Consider `CC(C)CC(C)(C)C` [2,2,4-Trimethylpentane], for which the logKOW in data set [1] (Table 2, rounded values) is 4.1.

For `CCC(C)(C)C` [2,2-Dimethylbutane], the logKOW in data set [1] (Table 2, rounded values) was 3.8.

Regarding `CCCC(C)(C)C` [2,2-Dimethylpentane], the logKOW in data set [1] (Table 2, rounded values) was 3.8.

Regarding `CCC(C)C(C)C` (centres unmarked) [2,3-Dimethylpentane], the logKOW in data set [1] (Table 2, rounded values) is recorded as 3.8.

Take `CC(C)Cc1ccccc1` [2-Methyl-1-phenylpropane]: the logKOW in data set [1] (Table 4) is 3.4.

Consider `CCCCC(C)C` [2-Methylhexane], for which, in data set [1] (Table 2, rounded values), the logKOW is reported as 3.7.

For the molecule `CCCC(C)C` [2-Methylpentane], the logKOW in data set [1] (Table 2, rounded values) was 3.6.

Take `CCC(C)c1ccccc1` (centres unmarked) [2-Phenylbutane]: the logKOW in data set [1] (Table 4) is on record as 3.4.

In the case of `CC(C)=O` [Acetone], the logKOW in data set [1] (Table 6, rounded values) is listed as −0.2; in data set [1] (Table 7), −0.24.

As for `CC#N` [Acetonitrile], the logKOW in data set [1] (Table 6, rounded values) was −0.3; in data set [1] (Table 7) it was −0.34.

Turning to `COc1ccccc1` [Anisol], in data set [1] (Table 4), the logKOW was 2.1.

For `ClC(Cl)(Cl)Cl` [Carbon tetrachloride], the logKOW entry was “approx. 2.8” in data set [1] (Table 3, rounded orientation values) and 2.8 in data set [1] (Table 4).

Regarding `Clc1ccccc1` [Chlorobenzene], the logKOW in data set [1] (Table 4) is 2.9. The “log KOW” value in data set [1] is on record as “about 2.9”.

On to `CC(C)c1ccccc1` [Cumol], for which the logKOW in data set [1] (Table 4) is recorded as 3.4.

Regarding `C1CCCCCCCCC1` [Cyclodecane], the logKOW in data set [1] (Table 2, rounded values) was 5.5.

Turning to `C1CCCCCC1` [Cycloheptane], the logKOW in data set [1] (Table 2, rounded values) is given as 4.

With `C1CCCCCCCC1` [Cyclononan], the logKOW in data set [1] (Table 2, rounded values) was 5.1.

`C1CCCC1` [Cyclopentane]: the logKOW in data set [1] (Table 2, rounded values) is recorded as 3.0; in data set [1] (Table 8), 3.00.

Take `CCCCCCCCCC` [Decan]: in data set [1] (Table 2, rounded values), the logKOW is given as 6.3.

Turning to `ClCCl` [Dichloromethane], the logKOW entry in data set [1] (Table 6, rounded values) was “+1.3”; in data set [1] (Table 7), 1.25.

As for `CCOCC` [Diethyl ether], the logKOW result in data set [1] (Table 6, rounded values) is reported as “+0.9”; in data set [1] (Table 7) it was 0.89.

Consider `CCCOCCC` [Dipropyl ether], for which the logKOW entry in data set [1] (Table 6, rounded values) is recorded as “+2.0”.

For the molecule `CCOc1ccccc1` [Ethoxybenzene], the logKOW in data set [1] (Table 4) is on record as 2.5.

On to `CCOC(C)=O` [Ethyl acetate], for which the logKOW entry in data set [1] (Table 6, rounded values) was “+0.7”; in data set [1] (Table 7) it was 0.73.

In the case of `CCc1ccccc1` [Ethylbenzene], the logKOW in data set [1] (Table 4) is recorded as 3.2.

For `OCC(O)CO` [Glycerin], in data set [1] (Table 6, rounded values), the logKOW is −1.8.

As for `CCCCCCC` [Heptane], the logKOW in data set [1] (Table 2, rounded values) is recorded as 4.5; in data set [1] (Table 8), 4.50.

`CCC(C)C` [Isopentane]: in data set [1] (Table 2, rounded values), the logKOW is listed as 3.2.

Regarding `CO` [Methanol], the logKOW is reported as −0.7 in data set [1] (Table 6, rounded values) and −0.74 in data set [1] (Table 7).

For `COC(C)=O` [Methyl acetate], in data set [1] (Table 6, rounded values), the logKOW entry is recorded as “+0.2”.

For the molecule `CC1CCCCC1` [Methylcyclohexane], the logKOW in data set [1] (Table 2, rounded values) is 3.9.

`CC1CCCC1` [Methylcyclopentane]: in data set [1] (Table 2, rounded values), the logKOW was 3.4.

`CN1CCCC1=O` [N-methylpyrrolidone]: the logKOW in data set [1] (Table 6, rounded values) is given as −0.5.

With `CCCCCCCCC` [Nonan], the logKOW in data set [1] (Table 2, rounded values) is 5.7.

In the case of `CCCCCCCC` [Octane], the logKOW in data set [1] (Table 2, rounded values) is 5.2.

Take `CCC(=O)O` [Propionic acid]: the logKOW in data set [1] (Table 7) is 0.32.

Consider `CCC(C)=O` [Solution 2-Butanone, 2-Butanone], for which, in data set [1] (Table 7), the logKOW is recorded as 0.29.

`CCCC(C)=O` [Solution 2-Pentanone, 2-Pentanone]: the logKOW entry in data set [1] (Table 6, rounded values) is “+0.9”; in data set [1] (Table 7) it was 0.84.

`FC(F)(F)C(F)(F)C(F)(F)C(F)(F)C(F)(F)C(F)(F)F` [Tetradecafluorohexane]: the logKOW in data set [1] (Table 4) is on record as 5.8.

Take `C1CCOC1` [Tetrahydrofuran (THF), Tetrahydrofuran]: the logKOW entry in data set [1] (Table 6, rounded values) is listed as “+0.5”; in data set [1] (Table 7), 0.46.

`O` [Water]: in data set [1] (Table 5, rounded orientation values), the logKOW entry is “approx. −1.4”.

Regarding `CC(C)Cc1ccccc1` [iso-butylbenzene], in data set [1] (Table 4), the logKOW is 4.1.

`Cc1cccc(C)c1` [m-Xylene]: the logKOW is 3.2 in data set [1] (Table 4) and 3.20 in data set [1] (Table 8).

`CCCOC(C)=O` [n-Propyl acetate]: the logKOW result in data set [1] (Table 6, rounded values) is on record as “+1.4”.

`Clc1ccccc1Cl` [o-Dichlorobenzene]: in data set [1] (Table 4), the logKOW is reported as 3.4.

As to `Cc1ccccc1C` [o-Xylene], the figures for the logKOW in data set [1] (Table 4) and in data set [1] (Table 8) were 3.1 and 3.12, respectively.

Take `Cc1ccc(C)cc1` [p-Xylene]: the logKOW in data set [1] (Table 4) is 3.2; in data set [1] (Table 8), 3.15.

For `CC(=O)O[C@H]1C(=O)[C@@]2(C)[C@H]([C@H](OC(=O)c3ccccc3)[C@]3(O)C[C@H](OC(=O)[C@H](O)[C@@H](NC(=O)c4ccccc4)c4ccccc4)C(C)=C1C3(C)C)[C@]1(OC(C)=O)CO[C@@H]1C[C@@H]2O` [paclitaxel, (2α,4α,5β,7β,10β,13α)-4,10-Bis(acetyloxy)-13-{[(2R,3S)-3-(benzoylamino)-2-hydroxy-3-phenylpropanoyl]oxy}-1,7-dihydroxy-9-oxo-5,20-epoxytax-11-en-2-yl-benzoat], the Crystal suspension entry in data set [2] (Acetone/Cyclohexane 10:90 (v/v polar/non-polar)) is listed as “+++”; in data set [2] (Acetone/Cyclohexane 50:50 (v/v polar/non-polar)), “−−−”; in data set [2] (Acetone/Cyclohexane 60:40 (v/v polar/non-polar)), “−−−”; in data set [2] (Acetone/Heptane 10:90 (v/v polar/non-polar)) it was “+++”; in data set [2] (Acetone/Heptane 60:40 (v/v polar/non-polar)) it was “−−−”; in data set [2] (Acetone/Hexane 10:90 (v/v polar/non-polar)), “+++”. Also, the Crystal suspension entry in data set [2] (Acetone/Hexane 50:50 (v/v polar/non-polar)) is recorded as “−−−”; in data set [2] (Acetone/Hexane 60:40 (v/v polar/non-polar)) it was “−−−”; in data set [2] (Ethanol/Cyclohexane 10:90 (v/v polar/non-polar)), “+++”; in data set [2] (Ethanol/Cyclohexane 60:40 (v/v polar/non-polar)), “−−−”; in data set [2] (Ethanol/Heptane 10:90 (v/v polar/non-polar)), “+++”; in data set [2] (Ethanol/Heptane 60:40 (v/v polar/non-polar)), “−−−”. The Crystal suspension result is reported as “+++” in data set [2] (Ethanol/Hexane 10:90 (v/v polar/non-polar)); “−−−” in data set [2] (Ethanol/Hexane 60:40 (v/v polar/non-polar)); “+++” in data set [2] (Ethyl acetate/Cyclohexane 10:90 (v/v polar/non-polar)); “+++” in data set [2] (Ethyl acetate/Cyclohexane 30:70 (v/v polar/non-polar)); “+++” in data set [2] (Ethyl acetate/Cyclohexane 40:60 (v/v polar/non-polar)); “+/−” in data set [2] (Ethyl acetate/Cyclohexane 60:40 (v/v polar/non-polar)). Moreover, the Crystal suspension entry in data set [2] (Ethyl acetate/Heptane 10:90 (v/v polar/non-polar)) is reported as “+++”; in data set [2] (Ethyl acetate/Heptane 30:70 (v/v polar/non-polar)), “+++”; in data set [2] (Ethyl acetate/Heptane 40:60 (v/v polar/non-polar)), “+++”; in data set [2] (Ethyl acetate/Heptane 60:40 (v/v polar/non-polar)), “+/−”; in data set [2] (Ethyl acetate/Hexane 10:90 (v/v polar/non-polar)), “+++”; in data set [2] (Ethyl acetate/Hexane 30:70 (v/v polar/non-polar)), “+++”. In addition, the Crystal suspension result in data set [2] (Ethyl acetate/Hexane 40:60 (v/v polar/non-polar)) was “+++”; in data set [2] (Ethyl acetate/Hexane 60:40 (v/v polar/non-polar)), “+/−”; in data set [2] (iso-propanol/Cyclohexane 10:90 (v/v polar/non-polar)), “+++”; in data set [2] (iso-propanol/Cyclohexane 50:50 (v/v polar/non-polar)), “−−−”; in data set [2] (iso-propanol/Cyclohexane 60:40 (v/v polar/non-polar)), “−−−”; in data set [2] (iso-propanol/Heptane 10:90 (v/v polar/non-polar)), “+++”. The Crystal suspension entry in data set [2] (iso-propanol/Heptane 50:50 (v/v polar/non-polar)) is reported as “−−−”; in data set [2] (iso-propanol/Heptane 60:40 (v/v polar/non-polar)), “−−−”; in data set [2] (iso-propanol/Hexane 10:90 (v/v polar/non-polar)), “+++”; in data set [2] (iso-propanol/Hexane 50:50 (v/v polar/non-polar)), “−−−”; in data set [2] (iso-propanol/Hexane 60:40 (v/v polar/non-polar)), “−−−”.

On to `CC(C)(C)C1CCCCC1` [tert-butylcyclohexane], for which, in data set [1] (Table 2, rounded values), the logKOW is 4.0.

Regarding `CCCCCCCCCCCC(=O)OCC(COC(=O)CCCCCCCCCCC)OC(=O)CCCCCCCCCCC` [tridodecanoylglycerol], in data set [3], the “sedimentation of the microcrystals” value is reported as “sedimentation of the crystals occurred”, the “state of paclitaxel microcrystals in the suspension after 100 h” value is given as “did not dissolve completely”, the “microcrystals intact in SEM images” value is recorded as “did not remain intact” and the “microcrystals of paclitaxel dissolve directly in the solution” value is “did not dissolve directly”.

Consider `CCCCCCC(=O)OCC(COC(=O)CCCCCC)OC(=O)CCCCCC` [triheptanoylglycerol], for which, in data set [3], the “state of paclitaxel microcrystals in the suspension after 100 h” value is “partially dissolved”, the “microcrystals intact in SEM images” value is reported as “did not remain intact” and the “microcrystals of paclitaxel dissolve directly in the solution” value is reported as “did not dissolve directly”. In addition, the “paclitaxel microcrystals on temperature increase” value in data set [3] (temperature increased (50° C.)) was “dissolved”.

The values above are taken from US20240082463A1, “COATED MEDICAL PRODUCT” (HEMOTEQ AG, priority 2020, published 2024).
